Measurements taken from patent US20090175866A1, “TREATMENT OF B-CELL MALIGNANCIES” (priority 2004, published 2009).

What was measured:
Assay type in all cases: cell-based, human
H929 cells = test: Viability of H929 myeloma cells (MTT); details: 100 nM
Excerpt: (§1) FIG. 2 is a graph showing the viability of human myeloma cell lines in the presence of PRO-001. Viability is reported as the ratio between the optical density (OD) in the presence of FGF±inhibitor and the OD in the absence of FGF.
(§2) Non-transformed rat chondrocyte cell line expressing PGFR3 in an inducible manner (RCJ-FGFR3) has been described previously (Rauchenberger R. et al. J. Biol. Chem. 2003; 278:38194-205). Cells were maintained in α-Minimum Essential Media supplemented with 15% fetal calf serum (FCS), 2 mM L-Glutamine, 100 U/ml penicillin, 100 μg/ml streptomycin, 600 μg/ml G418 (Gibco BRL, Ontario, Canada), 2 μg/ml Tetracyclin (Sigma, Ontario, Canada), and 50 μg/ml HygromycinB (Gibco BRL). […]
(§3) Cell viability was assessed by 3-(4,5-dimethylthiazol)-2,5-diphenyl tetrazolium (MTT) or (2,3-bis(2-methoxy-4-nitro-5-sulphophenyl)-5-[(phenylamino) carbonyl]-2H-tetrazolium hydroxide (XTT) dye absorbance where indicated. Cells were seeded in 96-well plates at a density of 20,000 (FDCP-1 cells), 5,000 (B9 cells) or 25,000 cells (MM cell lines) per well in culture medium. Cells were incubated in the absence or presence of one of the following cytokines: 10 ng/ml FGF9 and 5 μg/ml heparin, 1% murine IL-6, 50 ng/ml IGF-1 or 50 ng/ml human IL-6 where indicated and increasing concentrations of PRO-001, control antibody (purified human Fab) or 100 nM PD173074. […]

8226 cells = test: Viability of 8226 myeloma cells (MTT); details: 100 nM, cells lack FGFR3 expression
Excerpt: as §1, §2, §3

UTMC2 cells = test: Viability of stimulated UTMC2 myeloma cells (MTT); details: 100 nM; MTT
Experimental: as §1
FIG. 4 is a graph showing viability of UTMC2 cells treated with FGF, IL6 or IGF-1. The dark bars represent stimulated cells treated with a control antibody; the dotted bar represents stimulated cells treated with 5 μg/ml PRO-001; the square-filled bar represents stimulated cells treated with 100 nM PD173074.
Non-transformed rat chondrocyte cell line expressing PGFR3 in an inducible manner (RCJ-FGFR3) has been described previously (Rauchenberger R. et al. J. Biol. Chem. 2003; 278:38194-205). […]
as §3

CCN(CC)CCCCNc1ncc2cc(-c3cc(OC)cc(OC)c3)c(NC(=O)NC(C)(C)C)nc2n1 [PD173074, reference compound]
Cell growth of H929 cells in the presence of FGF (H929 cells): resistant
Cell growth of 8226 cells in the presence of FGF (8226 cells): resistant
Inhibition of FGF-stimulated growth of UTMC2 (UTMC2 cells): Inhibition of FGF-stimulated growth of UTMC2 by PRO-001 was comparable to that induced by PD173074
